Calls of active or inactive are those of the source. For most assays here, no stated cut-off is given here; in the data, actives have a measured AC50 and inactives only a lower limit.
Legend:
[1] = target: T1, Sentrin-specific protease 8 (Homo sapiens, UniProt Q96LD8); type: functional;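 further: luminescence read-out of SENP8 inhibition, dose-response confirmation following an ultra-high-throughput screen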
T1 sequence (Q96LD8 whole entry): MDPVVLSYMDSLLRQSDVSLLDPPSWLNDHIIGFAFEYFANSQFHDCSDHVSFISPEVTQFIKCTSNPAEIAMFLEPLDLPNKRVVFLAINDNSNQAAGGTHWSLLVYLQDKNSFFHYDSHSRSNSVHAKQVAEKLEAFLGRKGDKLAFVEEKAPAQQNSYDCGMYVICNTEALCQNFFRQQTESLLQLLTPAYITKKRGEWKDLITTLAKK

[2] = target: T2, Replicative DNA helicase DnaB (Mycobacterium tuberculosis, UniProt P9WMR3); assay: DnaB intein splicing inhibitors, dose response, biochemical, cell-free fluorescence (AID 449749); type: functional
T2 sequence (P9WMR3 whole entry): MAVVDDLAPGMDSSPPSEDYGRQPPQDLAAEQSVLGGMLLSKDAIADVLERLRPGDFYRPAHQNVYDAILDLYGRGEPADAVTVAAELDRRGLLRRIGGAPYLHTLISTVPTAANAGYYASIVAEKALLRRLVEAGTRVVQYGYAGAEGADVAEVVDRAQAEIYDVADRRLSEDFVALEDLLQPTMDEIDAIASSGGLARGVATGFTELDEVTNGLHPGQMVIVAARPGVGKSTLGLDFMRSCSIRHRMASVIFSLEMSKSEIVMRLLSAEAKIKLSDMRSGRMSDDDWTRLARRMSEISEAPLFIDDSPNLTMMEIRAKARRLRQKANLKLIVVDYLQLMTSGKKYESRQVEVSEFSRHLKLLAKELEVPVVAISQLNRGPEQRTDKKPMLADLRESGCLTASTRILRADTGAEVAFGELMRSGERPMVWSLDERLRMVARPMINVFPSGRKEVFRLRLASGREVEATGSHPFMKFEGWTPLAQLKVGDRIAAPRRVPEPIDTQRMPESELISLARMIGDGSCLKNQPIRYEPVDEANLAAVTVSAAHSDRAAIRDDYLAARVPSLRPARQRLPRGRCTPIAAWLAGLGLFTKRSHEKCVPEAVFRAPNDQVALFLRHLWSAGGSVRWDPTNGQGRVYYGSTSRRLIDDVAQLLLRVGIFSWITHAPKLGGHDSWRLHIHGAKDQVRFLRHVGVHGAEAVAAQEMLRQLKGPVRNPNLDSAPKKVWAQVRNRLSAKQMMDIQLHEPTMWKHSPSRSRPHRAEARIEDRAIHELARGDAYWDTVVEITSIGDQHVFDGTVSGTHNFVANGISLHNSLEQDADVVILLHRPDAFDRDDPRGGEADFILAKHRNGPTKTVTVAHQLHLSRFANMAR

[3] = target: T3, Histone-lysine N-methyltransferase NSD2 (Homo sapiens, UniProt O96028); type: biochemical
T3 sequence (O96028 whole entry): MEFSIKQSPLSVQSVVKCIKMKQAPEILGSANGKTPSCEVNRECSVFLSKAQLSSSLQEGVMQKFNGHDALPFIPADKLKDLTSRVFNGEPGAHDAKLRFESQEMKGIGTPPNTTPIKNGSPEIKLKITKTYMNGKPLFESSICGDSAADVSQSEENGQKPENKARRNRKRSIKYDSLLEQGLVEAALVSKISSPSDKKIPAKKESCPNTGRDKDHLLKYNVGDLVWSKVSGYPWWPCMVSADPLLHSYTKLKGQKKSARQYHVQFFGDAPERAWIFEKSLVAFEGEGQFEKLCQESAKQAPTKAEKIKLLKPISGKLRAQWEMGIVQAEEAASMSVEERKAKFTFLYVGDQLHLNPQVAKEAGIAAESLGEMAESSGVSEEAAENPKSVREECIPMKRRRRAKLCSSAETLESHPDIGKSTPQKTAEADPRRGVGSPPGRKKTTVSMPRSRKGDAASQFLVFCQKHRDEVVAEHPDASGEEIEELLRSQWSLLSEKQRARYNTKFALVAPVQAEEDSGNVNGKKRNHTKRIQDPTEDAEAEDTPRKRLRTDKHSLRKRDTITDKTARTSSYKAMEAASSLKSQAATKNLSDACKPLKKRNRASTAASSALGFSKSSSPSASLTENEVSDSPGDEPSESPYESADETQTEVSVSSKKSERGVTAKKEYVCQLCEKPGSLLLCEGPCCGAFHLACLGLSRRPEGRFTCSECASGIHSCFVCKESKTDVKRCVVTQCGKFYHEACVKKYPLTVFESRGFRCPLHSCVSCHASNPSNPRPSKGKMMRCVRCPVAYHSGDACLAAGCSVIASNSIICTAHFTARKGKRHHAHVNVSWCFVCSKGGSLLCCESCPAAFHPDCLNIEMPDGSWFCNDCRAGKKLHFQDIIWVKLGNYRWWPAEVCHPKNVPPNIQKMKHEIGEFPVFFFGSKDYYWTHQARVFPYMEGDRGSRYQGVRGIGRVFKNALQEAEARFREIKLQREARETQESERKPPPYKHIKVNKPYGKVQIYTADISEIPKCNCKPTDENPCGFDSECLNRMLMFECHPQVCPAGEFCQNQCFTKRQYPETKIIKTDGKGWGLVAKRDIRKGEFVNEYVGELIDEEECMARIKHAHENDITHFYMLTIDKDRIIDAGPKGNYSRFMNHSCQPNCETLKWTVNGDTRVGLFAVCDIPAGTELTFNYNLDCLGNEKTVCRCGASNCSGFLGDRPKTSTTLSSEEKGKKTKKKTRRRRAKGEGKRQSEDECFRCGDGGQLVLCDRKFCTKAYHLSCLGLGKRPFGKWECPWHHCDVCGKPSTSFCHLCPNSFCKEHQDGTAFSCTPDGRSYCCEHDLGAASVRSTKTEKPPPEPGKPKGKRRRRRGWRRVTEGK

SMILES | IC50 [1] | AC50 [2] | AC50 [3]
C=CCNC1=C(Cl)C(=O)c2ccccc2C1=O | 10.1 µM (active) | 4.75 µM (active) | 19.4 µM (active)
CS(=O)(=O)c1ccc2c(c1)SC1=NC(=O)/C(=C/c3ccc(O)c(O)c3)C(=N)N12 |  |  | 1.9 µM (active)
CCOC(=O)C(C(=O)OCC)c1cc(Br)c2noc3c2c1C(=O)c1ccccc1-3 |  | 27.6 µM (active) | > 20 µM (inactive)
CN(C)c1ccc(-c2nnc(-c3cccs3)o2)cc1 | > 100 µM (inactive) |  | 

— ChEMBL document CHEMBL1201862, “PubChem BioAssay data set” (2004)
